Experimental data: patent US4614741A, “Depot antiinflammatory agents” (priority 1983, dated 1986)

Experiments:
[1] = tested on: carrageenan-induced oedema of the rat paw; assay: Inhibition of carrageenan-induced oedema of the rat paw after i.m. depot administration; type: in vivo, rat (male, Bor:WISW (SPF-Cpb))
Procedure: The antioedemic and analgesic effect of the test substances after i.m. administration of an appropriate depot formulation was determined using the carrageenan-induced oedema of the rat paw or using the Randall-Selittotest [Arch. int. Pharmacodyn.
The tests were carried out with male rats [strain: Bor:WISW (SPF-Cpb), weight about 200 g]. The animals receive a single i.m. administration of a depot product, and the antiinflammatory effect was checked on subsequent days by inducing oedema with carrageenan.
The paw volumes were measured by the method of F. Kemper and G. Ameln [Z. ges. exp.
Various doses were administered in a constant volume of 0.03 ml administered per rat (see Table).

[2] = humans; p.o. versus i.m. in aqueous solution; cited from earlier work

For `O=C(O)c1cc(-c2ccc(F)cc2F)ccc1O` [compound 3, 2',4'-Difluoro-4-hydroxy-3-biphenyl-carboxylic acid], which “% inhibition of oedema, 2nd day after inj.” value ([1]; 5 mg/kg, suspension) is on record?
The value was 26%.

And the “% inhibition of oedema, 4th day after inj.” value ([1]; 5 mg/kg, suspension)?
Its value is 13%.

Which “% inhibition of oedema, 2nd day after inj.” value ([1]; 2.5 mg/kg, suspension) does the source give for `COc1ccc2cc([C@H](C)C(=O)O)ccc2c1` [compound 10, D-2-(6-Methoxy-2-naphthyl)propionic acid] here?
Its value is 42.8%.

And the “% inhibition of oedema, 4th day after inj.” value ([1]; 2.5 mg/kg, suspension)?
Its value is 22.3%.

Which “% inhibition of oedema, 2nd day after inj.” value ([1]; 13 mg/kg, suspension) does the source give for `CC(C)Cc1ccc(C(C)C(=O)O)cc1` (centres unmarked) [compound 11, 2-(p-Isobutylphenyl)-propionic acid] here?
Its value is 40%.

And the “% inhibition of oedema, 4th day after inj.” value ([1]; 13 mg/kg, suspension)?
The value was 45%.

For `CC(C(=O)O)c1cccc(C(=O)c2ccccc2)c1` (centres unmarked) [compound 13, 2-(m-Benzoylphenyl)-propionic acid], which “maximum level in the plasma” value [2] is on record?
The value was “nor do the maximum level in the plasma, or the plasma and renal clearance differ”.

For `COc1ccc2c(c1)c(CC(=O)O)c(C)n2C(=O)c1ccc(Cl)cc1` [compound 18, 1-(p-Chlorobenzoyl)-5-methoxy-2-methylindole-3-acetic acid], which “% inhibition of oedema, 2nd day after inj.” value ([1]; 10.0 mg/kg, solution) is on record?
Its value is 58.2%.

And the “% inhibition of oedema, 2nd day after inj.” value ([1]; 10.0 mg/kg, suspension)?
Its value is 58.2%.

What about the “% inhibition of oedema, 4th day after inj.” value ([1]; 10.0 mg/kg, solution) of the same molecule?
The value was 29.5%.

And the “% inhibition of oedema, 4th day after inj.” value ([1]; 10.0 mg/kg, suspension)?
Its value is 29.5%.

With `CN1C(C(=O)Nc2nccs2)=C(O)c2ccccc2S1(=O)=O` [compound 21, 4-Hydroxy-2-methyl-N--2-thiazolyl-2H--1,2-benzothiazine-3-carboxamide 1,1-dioxide] as the molecule, how does the “% inhibition of oedema, 2nd day after inj.” value ([1]; 15 mg/kg, suspension) read?
The value was 42.9%.

What about the “% inhibition of oedema, 4th day after inj.” value ([1]; 15 mg/kg, suspension) of the same molecule?
The value was 30.4%.

Which results are given for `CN1C(C(=O)Nc2ccccn2)=C(O)c2ccccc2S1(=O)=O` [compound 22, 4-Hydroxy-2-methyl-N--2-pyridinyl-2H--1,2-benzothiazine-3-carboxamide 1,1-dioxide]?
% inhibition of oedema, 2nd day after inj. ([1]; 0.6 mg/kg, solution): 33.2%; % inhibition of oedema, 2nd day after inj. ([1]; 0.6 mg/kg, suspension): 33%; % inhibition of oedema, 4th day after inj. ([1]; 0.6 mg/kg, solution): 39.3%; % inhibition of oedema, 4th day after inj. ([1]; 0.6 mg/kg, suspension): 39%
